These results are taken from patent US8318730B2, “Fused hetrocyclic compounds” (Synta Pharmaceuticals Corporation, priority 2003, dated 2012).

Where only a bound is given, the exact number is not on record here.

The first assay deals with IL-12 production. As to the kind of experiment: In vitro assay of Example 12: inhibition of IL-12 production in IFNγ/LPS- or IFNγ/SAC-stimulated cells, ELISA. In kind it is cell-based, human. The settings on record: Homo sapiens; assay of Example 12; if more than one assay was performed, only the most active IC50 result is reported. The source says: The biological activities of a compound can be evaluated by a number of cell-based assays. One of such assays can be conducted using cells from human peripheral blood mononuclear cells (PBMC) or human monocytic cell line (THP-1). The cells are stimulated with a combination of human interferon-γ (IFNγ) and lipopolysaccharide or a combination of IFNγ and Staphylococcus aureus Cowan I in the presence of a test compound. The level of inhibition of IL-12 production can be measured by determining the amount of p70 by using a sandwich ELISA assay with anti-human IL-12 antibodies. IC50 of the test compound can then be determined. Specifically, PBMC or THP-1 cells are incubated with the test compound. Cell viability was assessed using the bioreduction of MTS [3-(4,5-dimethylthiazol-2-yl)-5-(3-carboxymethoxyphenyl)-2-(4-sulfophenyl)-2H-tetrazolium] (Promega, Madison, Wis.).
Staphylococcus aureus Cowan I (SAC) is obtained from Calbiochem (La Jolla, Calif.), and lipopolysaccharide (LPS, Serratia marscencens) is obtained from Sigma (St. Louis, Mo.). Human and mouse recombinant IFNγ are purchased from Boehringer Mannheim (Mannheim, Germany) and Pharmingen (San Diego, Calif.), respectively.
Human PBMC are isolated by centrifugation using Ficoll-Paque (Pharmacia Biotech, Uppsala, Sweden) and prepared in RPMI medium supplemented with 10% fetal calf serum (FCS), 100 U/mL penicillin, and 100 μg/mL streptomycin. PBMC are plated in wells of a 96-well plate at a concentration of 5×10^5 cells/well, and primed by adding IFNγ (30 U/mL) for 22 h and stimulated by adding LPS (1 μg/mL), or by adding IFNγ (100 U/mL) and then stimulated by adding SAC (0.01%). A test quinazoline compound is dissolved in DMSO, and added to wells of the 96-well plate. The final DMSO concentration is adjusted to 0.25% in all cultures, including the compound-free control. Human THP-1 cells are plated in wells, primed by adding IFNγ (100 U/mL) for 22 h and stimulated by adding SAC (0.025%) in the presence of different concentrations of the quinazoline compound. Cell-free supernatants are taken 18 h later for measurement of cytokines. Cell viability is assessed using the bioreduction of MTS. Cell survival is estimated by determining the ratio of the absorbance in compound-treated groups versus compound-free control.
The supernatant is assayed for the amount of IL-12p40, IL-12p70, or IL-10 by using a sandwich ELISA with anti-human antibodies, i.e., a Human IL-12 p40 ELISA kit from R&D Systems (Berkeley, Calif.), and a Human IL-12 p70 or IL-10 ELISA kit from Endogen (Cambridge, Mass.). Assays are based on the manufacturer's instructions.
The biological activities of quinazoline compounds are tested on human PBMC or THP-1 cells.
In general terms: ELISA stands for enzyme-linked immunosorbent assay.
`COCCOc1nc(N2CCOCC2)c2cc(-c3cccc(C)c3)ccc2n1` [Compound 13, 2-(2-Methoxy-ethoxy)-4-morpholin-4-yl-6-m-tolyl-quinazoline]: the IC50 is 1820 nM. Consider `c1ccc(Nc2ccc3nc(OCCN4CCOCC4)nc(N4CCOCC4)c3c2)cc1` [Compound 14, [4-Morpholin-4-yl-2-(2-morpholin-4-yl-ethoxy)-quinazolin-6-yl]-phenyl-amine], for which the IC50 turned out to be 3000 nM. As to `COc1ccc(CCOc2nc(N3CCOCC3)c3cc(-c4cccc(C)c4)ccc3n2)cc1OC` [Compound 15, 2-[2-(3,4-Dimethoxy-phenyl)-ethoxy]-4-morpholin-4-yl-6-m-tolyl-quinazoline], the IC50 was found to be 189 nM. For `Cc1cccc(-c2ccc3nc(OCCc4ccccn4)nc(N4CCOCC4)c3c2)c1` [Compound 16, 4-Morpholin-4-yl-2-(2-pyridin-2-yl-ethoxy)-6-m-tolyl-quinazoline], the IC50 stood at 86 nM. The same measure, in the same setting: to `Cc1cccc(-c2ccc3nc(OCCO)nc(N4CCOCC4)c3c2)c1` [Compound 18, 2-(4-Morpholin-4-yl-6-m-tolyl-quinazolin-2-yloxy)-ethanol] belongs 162 nM; to `COc1ccc(CCOc2nc(N3CCOCC3)c3cc(-c4ccccc4)ccc3n2)cc1OC` [Compound 19, 2-[2-(3,4-Dimethoxy-phenyl)-ethoxy]-4-morpholin-4-yl-6-phenyl-quinazoline], 6910 nM; to `COc1ccc(CCOc2nc(N3CCOCC3)c3cc(-c4cccc(C(F)(F)F)c4)ccc3n2)cc1OC` [Compound 20, 2-[2-(3,4-Dimethoxy-phenyl)-ethoxy]-4-morpholin-4-yl-6-(3-trifluoromethyl-phenyl)-quinazoline], 107 nM. In the case of `COc1ccc(CCOc2nc(N3CCOCC3)c3cc(-c4ccc(C)cc4)ccc3n2)cc1OC` [Compound 21, 2-[2-(3,4-Dimethoxy-phenyl)-ethoxy]-4-morpholin-4-yl-6-p-tolyl-quinazoline], the IC50 came to 59 nM. As to `COc1ccc(CCOc2nc(N3CCOCC3)c3cc(-c4ccc(C)s4)ccc3n2)cc1OC` [Compound 22, 2-[2-(3,4-Dimethoxy-phenyl)-ethoxy]-6-(5-methyl-thiophen-2-yl)-4-morpholin-4-yl-quinazoline], the IC50 stood at 3040 nM. Still for that read-out and setting: the same measure for `COc1ccc(CCOc2nc(N3CCOCC3)c3cc(-c4cccc(C#N)c4)ccc3n2)cc1OC` [Compound 23, 3-{2-[2-(3,4-Dimethoxy-phenyl)-ethoxy]-4-morpholin-4-yl-quinazolin-6-yl}-benzonitrile]: more than 10000 nM; for `COc1ccc(CCOc2nc(N3CCOCC3)c3cc(-c4cccc(C(N)=O)c4)ccc3n2)cc1OC` [Compound 24, 3-{2-[2-(3,4-Dimethoxy-phenyl)-ethoxy]-4-morpholin-4-yl-quinazolin-6-yl}-benzamide]: 1430 nM. Turning to `COc1cccc(-c2ccc3nc(OCCc4ccc(OC)c(OC)c4)nc(N4CCOCC4)c3c2)c1` [Compound 25, 2-[2-(3,4-Dimethoxy-phenyl)-ethoxy]-6-(3-methoxy-phenyl)-4-morpholin-4-yl-quinazoline], the IC50 turned out to be 400 nM. Same read-out and setting: the same measure for `COc1ccc(CCOc2nc(N3CCOCC3)c3cc(-c4ccc(C)c(C)c4)ccc3n2)cc1OC` [Compound 26, 2-[2-(3,4-Dimethoxy-phenyl)-ethoxy]-6-(3,4-dimethyl-phenyl)-4-morpholin-4-yl-quinazoline]: 107 nM. The same measure, in the same setting: the same measure for `COc1ccc(CCOc2nc(N3CCOCC3)c3cc(-c4cc(C)cc(C)c4)ccc3n2)cc1OC` [Compound 27, 2-[2-(3,4-Dimethoxy-phenyl)-ethoxy]-6-(3,5-dimethyl-phenyl)-4-morpholin-4-yl-quinazoline]: 470 nM.

As to `COc1ccc(CCOc2nc(N3CCOCC3)c3cc(-c4cc5ccccc5o4)ccc3n2)cc1OC` [Compound 28, 6-Benzofuran-2-yl-2-[2-(3,4-dimethoxy-phenyl)-ethoxy]-4-morpholin-4-yl-quinazoline], the IC50 amounted to 64 nM. Same read-out and setting: the same measure for `COc1ccc(CCOc2nc(N3CCOCC3)c3cc(-c4ccc(Cl)cc4)ccc3n2)cc1OC` [Compound 30, 6-(4-Chloro-phenyl)-2-[2-(3,4-dimethoxy-phenyl)-ethoxy]-4-morpholin-4-yl-quinazoline]: more than 1000 nM; for `COc1ccc(-c2ccc3nc(OCCc4ccc(OC)c(OC)c4)nc(N4CCOCC4)c3c2)cc1` [Compound 31, 2-[2-(3,4-Dimethoxy-phenyl)-ethoxy]-6-(4-methoxy-phenyl)-4-morpholin-4-yl-quinazoline]: 419 nM.

For `COc1ccc(CCOc2nc(N3CCOCC3)c3cc(-c4ccc(C(F)(F)F)cc4)ccc3n2)cc1OC` [Compound 32, 2-[2-(3,4-Dimethoxy-phenyl)-ethoxy]-4-morpholin-4-yl-6-(4-trifluoromethyl-phenyl)-quinazoline], the IC50 was found to be 3000 nM. As for `COc1ccc(CCOc2nc(N3CCOCC3)c3cc(-c4ccc(F)cc4)ccc3n2)cc1OC` [Compound 33, 6-(4-Fluoro-phenyl)-2-[2-(3,4-dimethoxy-phenyl)-ethoxy]-4-morpholin-4-yl-quinazoline], the IC50 is more than 10000 nM.

Consider `COc1ccc(CCOc2nc(N3CCOCC3)c3cc(Oc4ccccc4Cl)ccc3n2)cc1OC` [Compound 34, 6-(2-Chloro-phenoxy)-2-[2-(3,4-dimethoxy-phenyl)-ethoxy]-4-morpholin-4-yl-quinazoline], for which the IC50 was determined as 347 nM.

`COc1ccc(CCOc2nc(N3CCOCC3)c3cc(Oc4cccc(Cl)c4)ccc3n2)cc1OC` [Compound 35, 6-(3-Chloro-phenoxy)-2-[2-(3,4-dimethoxy-phenyl)-ethoxy]-4-morpholin-4-yl-quinazoline]: the IC50 amounted to 9900 nM. Still for that read-out and setting: the same measure for `COc1ccc(CCOc2nc(N3CCOCC3)c3cc(Oc4ccc(C)cc4)ccc3n2)cc1OC` [Compound 36, 2-[2-(3,4-Dimethoxy-phenyl)-ethoxy]-4-morpholin-4-yl-6-p-tolyloxy-quinazoline]: 2600 nM; for `Cc1ccc(-c2ccc3nc(OCCN4CCOCC4)nc(N4CCOCC4)c3c2)cc1` [Compound 37, 4-Morpholin-4-yl-2-(2-morpholin-4-yl-ethoxy)-6-p-tolyl-quinazoline]: 2500 nM.

Staying with this assay, now noted: assay of Example 12; if more than one assay was performed, only the most active IC50 result is reported.
For “2-Methyl-1-(4-morpholin-4-yl-6-m-tolyl-quinazolin-2-yloxy)-propan-2-ol [Compound 17]”, the IC50 was 370 nM.

The assay is the same for the next values; noted with them: measured in an assay according to Example 12; human PBMC or THP-1 cells.
Turning to `COc1cc2nc(N3CCOCC3)nc(NN=Cc3cccc(C)c3)c2cc1OC` [Compound 1, N-(6,7-Dimethoxy-2-morpholin-4-yl-quinazolin-4-yl)-N′-(3-methyl-benzylidene)-hydrazine], the IC50 came to 98.8 nM. For the molecule `COc1cc2nc(N3CCOCC3)nc(Nc3ccc4[nH]c(C)c(C)c4c3)c2cc1OC` [Compound 2, (6,7-Dimethoxy-2-morpholin-4-yl-quinazolin-4-yl)-(2,3-dimethyl-1H-indol-5-yl)-amine], the IC50 amounted to 109 nM.

For `COc1cc2nc(N3CCOCC3)nc(NC(=O)Nc3cccc(C)c3)c2cc1OC` [Compound 6, 1-(6,7-dimethoxy-2-morpholin-4-yl-quinazolin-4-yl)-3-m-tolyl-urea], the IC50 worked out at 60.5 nM.

`Cc1cccc(/C=N/Nc2nc(N3CCOCC3)nc3cc(Cl)ccc23)c1` [Compound 8, N-(7-Chloro-2-morpholin-4-yl-quinazolin-4-yl)-N′-(3-methyl-benzylidene)-hydrazine]: the IC50 is 298 nM. In the case of `COc1cc2nc(N3CCOCC3)nc(N/N=C/c3cccc(C)c3)c2cc1OCCOc1ccccc1` [Compound 9, N-[7-Methoxy-2-morpholin-4-yl-6-(2-phenoxy-ethoxy)-quinazolin-4-yl]-N′-(3-methyl-benzylidene)-hydrazine], the IC50 is 800 nM. Still for that read-out and setting: to `Cc1[nH]c2ccc(Nc3nc(N4CCOCC4)nc4ccc([N+](=O)[O-])cc34)cc2c1C` [Compound 10, (2,3-Dimethyl-1H-indol-5-yl)-(2-morpholin-4-yl-6-nitro-quinazolin-4-yl)-amine] belongs 5000 nM; to `COc1cc2nc(N3CCOCC3)nc(Nc3cccc(C)c3)c2cc1OC` [Compound 11, (6,7-Dimethoxy-2-morpholin-4-yl-quinazolin-4-yl)-m-tolyl-amine], 10000 nM.

By IC50 is commonly meant the point on the concentration scale where inhibition reaches its midpoint.
